Source: patent publication US20230357292A1, “MULTI-COORDINATE GOLD-PHOSPHINE COMPOUNDS AND METHOD OF USE” (University of Kentucky Research Foundation, priority 2020, published 2023)

How the values were obtained:
4T1 tumor = test: In vivo comparative experiment of AuPhos-89 and cisplatin, 4T1, IP; parameters: species or system BALB/c mice
Experimental: Mice were implanted with 2,000,000 4T1 cells subcutaneously on their flanks. […] The control group was injected with a PBS solution containing 1.5% DMSO and 12% Kolliphor. Injection and tumor-size/body-weight measurement was performed three days a week.
Mice organs (heart, lung, liver, kidney, spleen, and tumor) were fixed in freshly prepared paraformaldehyde (4% in PBS), the fixation time was 24 hours. And those processed for paraffin sectioning. The organs sections of 5 μm were stained with H&E staining and used for histological examination of the organs and tumor. A total of 5 sections per tissues (spanning the full depth of the organ) were examined and photographed using a Nikon Eclipse 55i microscope. […]

MDA-MB-231 (breast) = test: Cell viability, crystal violet assay, MDA-MB-231; format: cell-based, human; settings: for IC50: MDA-MB-231 (breast), 4,000 cells/well, treated 72 h, mean ± SD (n = 3)
Text: The plates were washed with water and dried again.

H460 (lung) = settings: H460 (lung), 4,000 cells/well, treated 72 h, mean ± SD (n = 3)
Experimental: (§1) All cell lines (OVCAR8, A2780, H460, and MDA-MB-231) were cultivated in RPMI or DMEM supplemented with 10% FBS, 1% penicillin/streptomycin, and 1% amphotericin. All cells were grown at 310K in a humidified atmosphere containing 5% CO2.
(§2) Various established human ovarian, lung, and breast cancer cell lines were seeded in 96-well plates (4000 cells/well) and were incubated with RPMI 1640 or DMEM (100 μL) supplemented with 10% FBS, 1% penicillin/streptomycin, and 1% amphotericin for 24 h and at 37° C. They were then treated with AuPhos compounds at increasing concentrations for 72 h from stock solutions following serial dilutions, in which AuPhos stock solutions were prepared in DMSO/media mixture (% v/v=20:80). Thereafter, cellular viability was assessed via the established crystal violet colorimetric assay. In brief, cells were fixed with 50 μL of a 1% glutaraldehyde solution and placed in an incubator (37° C., 5% CO2) for 1 hour. The plates were washed with water by running them under a gentle flow of tap water. The plates were air-dried, and crystal violet reagent was added to each well and allowed to incubate at room temperature for 20 min. The plates were washed with water and dried again. Methanol (200 μL/well) was added to each well, and the measurements of absorbance were subsequently performed using a Biotek Synergy H1 Plate Reader at 570 nm (peak absorbance).

OVCAR8 (ovarian) = settings: OVCAR8 (ovarian), 4,000 cells/well, treated 72 h, mean ± SD (n = 3)
Experimental: as §1, §2

A2780 (ovarian) = settings: A2780 (ovarian), 4,000 cells/well, treated 72 h, mean ± SD (n = 3)
Experimental: as §1, §2

MDA-MB-231 cells = settings: 2 mM for 3 h, FACS
Experimental: MDA-MB-231 cells were seeded at a density of 5×10^5 cells/well in a 6-well clear bottom plate with a final media volume of 2 mL. The cells were allowed to adhere overnight at 37° C. A stock of AuPhos-89 was prepared fresh in DMSO/DMEM (% v/v=20:80) and added to the desired well at a concentration of 1 μM with a final volume of 2.5 mL and incubated for 15 h at 37° C. A stock of H2O2 was prepared in PBS and the cells treated at a final concentration of 2 mM for 3 hours and used as positive control. When ready for analysis, medium was removed and the wells washed with 5 mL of PBS. The cells were trypsinized (1 mL), 5 mL of DMEM were added to each well, and total volume collected and centrifuged to pellet the cells. The cells were resuspended in 2 mL of fresh media, counted, and reconstituted to a concentration of 1×10^5 cells/mL. The cells were centrifuged again, and the pellet suspended in 500 μL of Annexin binding buffer. To each sample was added 5 μl of Annexin V-FITC and 5 μl PI and incubated in the dark at room temperature for 5 minutes. The samples were then subjected to FACS analysis.

Row | Molecule | tumor inhibition compared with the control group (4T1 tumor; AuPhos-89 10 mg kg−1 IP, cisplatin 3 mg kg−1 IP) | tumor volume (4T1 tumor; six treatments, thrice a week, IP, AuPhos-89 10 mg kg−1, cisplatin 3 mg/kg, versus vehicle control) | IC50 (MDA-MB-231 (breast); Homo sapiens) | less cytotoxicity compared with the AuPhos compounds (Table 1) (MDA-MB-231 (breast); MDA-MB-231) | IC50 (H460 (lung)) | IC50 (OVCAR8 (ovarian)) | IC50 (A2780 (ovarian)) | IC50 (MDA-MB-231 (breast)) | apoptosis, positive control (MDA-MB-231 cells)
1 | N.N.[Cl][Pt][Cl] [cisplatin, reference compound] | significant tumor inhibition | comparable results to AuPhos-89 treatment |  |  |  |  |  |  | 
2 | c1ccc(P(c2ccccc2)c2ccccc2P(c2ccccc2)c2ccccc2)cc1 [1,2-Bis(diphenylphosphino)benzene, reference compound] |  |  | 1370 ± 450 nM | ~6 times |  |  |  |  | 
3 | Cl.[Cl][Au-]1([c]2cccc3ccc4cccnc4c23)[P+](c2ccccc2)(c2ccccc2)c2ccccc2[P+]1(c1ccccc1)c1ccccc1 [AuPhos-86, (benzo[h]quinoline)[1,2-Bis(diphenylphosphino)benzene]gold(III) Dichloride] |  |  |  |  | 340 ± 70 nM | 820 ± 440 nM | 330 ± 40 nM | 290 ± 40 nM | 
4 | OO [hydrogen peroxide, reference compound] |  |  |  |  |  |  |  |  | significant apoptosis
5 | Cl.[Cl][Au-]1([c]2ccccc2Nc2ccccn2)[P+](c2ccccc2)(c2ccccc2)c2ccccc2[P+]1(c1ccccc1)c1ccccc1 [AuPhos-82, (2-anilinopyridine)[1,2-Bis(diphenylphosphino)benzene]gold(III) Dichloride] |  |  |  |  | 1040 ± 170 nM | 850 ± 60 nM | 340 ± 40 nM | 220 ± 200 nM | 
6 | Cl.O=Cc1ccc(-c2ccccn2)[c]([Au-]2([Cl])[P+](c3ccccc3)(c3ccccc3)c3ccccc3[P+]2(c2ccccc2)c2ccccc2)c1 [AuPhos-88, (4-(2-pyridyl)benzaldehyde)[1,2-Bis(diphenylphosphino)benzene]gold(III) Dichloride] |  |  |  |  | 400 ± 30 nM | 850 ± 70 nM | 270 ± 20 nM | 370 ± 210 nM | 
7 | Cc1ccc(-c2ccccn2)[c]([Au-]2([Cl])[P+](c3ccccc3)(c3ccccc3)c3ccccc3[P+]2(c2ccccc2)c2ccccc2)c1.Cl [AuPhos-87, (2-(p-tolyl)pyridine)[1,2-Bis(diphenylphosphino)benzene]gold(III) Dichloride] |  |  |  |  | 710 ± 90 nM | 820 ± 760 nM | 180 ± 40 nM | 450 ± 190 nM | 
8 | Cl.[Cl][Au-]1([c]2ccccc2Cc2ccccn2)[P+](c2ccccc2)(c2ccccc2)c2ccccc2[P+]1(c1ccccc1)c1ccccc1 [AuPhos-84, (2-benzylpyridine)[1,2-Bis(diphenylphosphino)benzene]gold(III) Dichloride] |  |  |  |  | 760 ± 150 nM | 1240 ± 140 nM | 250 ± 60 nM | 240 ± 160 nM | 
9 | (2-phenoxypyridine)[1,2-Bis(diphenylphosphino) benzene]gold(III) Dichloride [AuPhos-83] |  |  |  |  | 270 ± 60 nM | 890 ± 140 nM | 220 ± 10 nM | 220 ± 70 nM | 
10 | Cl.O=C(c1ccccn1)c1cccc[c]1[Au-]1([Cl])[P+](c2ccccc2)(c2ccccc2)c2ccccc2[P+]1(c1ccccc1)c1ccccc1 [AuPhos-85, (2-benzoylpyridine)[1,2-Bis(diphenylphosphino)benzene]gold(I) Dichloride] |  |  |  |  | 340 ± 70 nM | 640 ± 110 nM | 150 ± 30 nM | 260 ± 60 nM | 
